{"source": "paper PMC6030159", "about": "(Scientific Reports, 2018)", "key": {"MYCN:MAX interaction": {"test_system": "T1, MYCN:MAX interaction", "T1 construct": "endogenous in cells; host or cells: SK-N-BE(2)", "test": "isPLA endogenous MYCN:MAX in SK-N-BE(2) cells", "format": "cell-based", "conditions": "2.5 μM, 16 hours", "protocol": "The isPLA assay has been described. Antibodies used are listed in Supplementary Information. Briefly, cells were grown on collagen-coated chamber slides (Falcon), and treated with 1–10 μM of compounds, respectively, for 16 hours, then washed twice with PBS and fixed in ice cold methanol for 5–15 min at room temperature. Slides were washed in PBS with 0.05% Tween 20 and incubated in blocking buffer after which isPLA was performed using the Duolink® in situ PLA kit (Sigma-Aldrich) according to the manufacturer’s protocol. DNA was stained with DAPI. Incubation with primary antibodies were performed at +4 °C overnight. Images were taken using an Axiovert 200M inverted microscope (Zeiss) and fluorescent dots were quantified using semi-automated analysis in ImageJ (http://imagej.net) and averaged to number of dots per cell."}, "[1]": {"test_system": "HO15.19 (MYC knockout) Rat1 fibroblasts", "test": "WST-1 growth assay, HO15.19 (MYC knockout) Rat1 fibroblasts", "format": "cell-based, rat", "protocol": "(§1) Cell proliferation assays. Cell growth and viability was estimated in triplicates with WST-1\n(§2) (Roche) or Resazurin sodium salt (Sigma-Aldrich) assays in medium at 37°C and 5% CO 2 for\n(§3) 2 hours after which absorbance or fluorescence, respectively, was measured with an Omega\n(§4) Fluostar (BMG Labtech) in a 96 well plate format. […]\n(§5) 0.7% agarose. […]"}, "MYC/MYCN target genes": {"test_system": "MYC/MYCN target genes", "test": "RT-qPCR of MYC/MYCN target genes in Kelly cells", "format": "cell-based", "conditions": "2.5 μM, 24 hours", "protocol": "These assays were performed essentially as described in[67],[68]. For further information on immunohistochemistry, and on primers and antibodies, see Supplementary Information."}, "MYC bHLHZip": {"target": "T2, MYC bHLHZip (Homo sapiens, UniProt P01106)", "T2 construct": "6xHis (N); made in house; host or cells: E. coli BL21 (DE3), pET28a; purified in denaturing conditions", "T2 sequence (P01106 367-447 limits assumed)": "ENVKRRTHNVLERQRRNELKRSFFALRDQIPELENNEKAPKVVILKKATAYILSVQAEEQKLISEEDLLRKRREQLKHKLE", "test": "SPR direct binding to immobilized MYC", "protocol": "Further, MYCMI-6 binding to MAX, MXD1 (MAD1) (Figs 4C and S5C and D), p53 (Fig. 4D), BSA (Suppl. Fig. S5E) and YFP (data not shown) were negligible. Binding to BCL-XL was only 10% of the theoretical maximum at 2 μM MYCMI-6 (Suppl. Fig. S5F).\n(§6) The MYC SPR assay was carried out as described above with MYCbHLHZip immobilized to a level of 800–1000 RU. For kinetic binding experiments, a Langmuir 1:1 binding event was applied using the Biacore T200 Evaluation Software 2.0 (GE Healthcare) to determine association (ka) and dissociation (kd) constants of the compound and to calculate affinity (KD) by the formula; KD = kd/ka. Binding responses from equilibrium binding experiments were plotted against compound concentration and KD values were determined at 50% of the theoretical Rmax with the formula Rmax = (MW analyte/MW ligand) × immobilized ligand level on the chip (RU) × stoichiometry (1:1). Same coupling method described above was used to immobilize the control proteins. MAX was immobilized to approximately 2000 RU, MAD to 600 RU, BSA to 1000 RU, p53 to 3000 RU and BCL-XL, to 500 RU."}, "[2]": {"test_system": "T3, bovine serum albumin (BSA)", "T3 construct": "purchased NanoTemper (included in the MST kit)", "test": "MST binding to BSA", "conditions": "BSA titrated", "experimental": "Titration of molecules was carried out in 16 PCR tubes into which a fixed concentration of fluorescent molecule was added. The mixture was applied to capillaries (standard treated, NanoTemper), and scanned in the Monolith NT.115 to measure initial fluorescence of molecule. MST was induced and fluorescence was measured during 40 seconds. Double measurements were carried out (MST power of 20% and 40%, or 40% and 60%) for each sample. Delta fluorescence or relative fluorescence of fluorescent molecule normalized to control vehicle was plotted against titrated molecule concentration. The protein labeling kit GREEN-NHS (NanoTemper) was used to label primary amines of proteins according to manufacture’s protocol.\nData are shown as mean ± standard deviation of 5 biological repeats."}, "BCL-XL": {"test_system": "T4, BCL-XL", "T4 construct": "purchased Abcam", "design": "method as in PMID 23824742", "conditions": "in vitro fluorescence polarization, BCL-XL:BAK; cited from earlier work"}, "lung tumor": {"test_system": "lung tumor", "design": "method as in PMID 23824742", "conditions": "cited from earlier work"}, "BSA": {"test_system": "T5, BSA", "T5 construct": "purchased NanoTemper (included in the MST kit)", "test": "SPR binding to BSA", "design": "species or system bovine", "protocol": "as §6"}, "[3]": {"test_system": "normal IMR-90 and BJ human fibroblasts", "test": "Viable/dead cell counting, normal fibroblasts", "format": "cell-based", "conditions": "12.5 μM, 24 hours", "protocol": "Triton-X-114 (Sigma). Truncated p53 core protein was a kind gift from Klas Wiman, CCK, […]\nCell proliferation assays. Cell growth and viability was estimated in triplicates with WST-1 (Roche) or Resazurin sodium salt (Sigma-Aldrich) assays in medium at 37°C and 5% CO 2 for 2 hours after which absorbance or fluorescence, respectively, was measured with an Omega Fluostar (BMG Labtech) in a 96 well plate format. Cell counting was done in 96 well plates with CellTracker Green (ThermoFisher) for 30 min in the incubator, after which DAPI was added for 5 min. Images were taken in the green (FITC) and blue (DAPI) channels using a fluorescence microscope (ImageXpress Micro, Molecular Devices). […] After 16 days, the colonies were stained with 100 µg/ml MTT (Sigma) overnight and colonies were counted.\nImmunohistochemistry. Apoptosis was visualized at the single-cell level on tumor cryosections using the TUNEL method using the In Situ Cell Death Detection Fluorescein-Roche kit and analyzed by fluorescence microscopy. […] Cell proliferation and microvascular density (MVD) were evaluated through Ki67 and CD31staining, respectively, on tumor cryosections and detected by immunofluoresence. […] For quantification, areas with positive TUNEL and Ki67 staining were measured using Image J software. For the analysis of MVD, the number of vessel structures per microscopic field was calculated."}, "[4]": {"test_system": "HOmyc3 (MYC reconstituted HO15.19) Rat1 fibroblasts", "test": "WST-1 growth assay, HOmyc3 (MYC reconstituted) Rat1 fibroblasts", "format": "cell-based, rat", "protocol": "as §1, §2, §3, §4, §5"}}, "note": "“Also recorded” adds a separate entry of the source. Like-named read-outs stand apart in the source and are kept apart here.", "data": [{"molecule": "CCOc1ccc2nc3cc(/N=N/c4ccc(N)nc4N)ccc3c(N)c2c1", "note": "[MYCMI-6]", "values": [{"measurement": "MYCN:MAX interaction (isPLA)", "setting": "MYCN:MAX interaction", "value": "significantly inhibited"}, {"measurement": "growth of MYC null (HO15.19) cells", "setting": "[1]", "value": "did not significantly affect growth"}, {"measurement": "expression of MYC/MYCN target genes", "setting": "MYC/MYCN target genes", "value": "significantly inhibited"}, {"measurement": "Kd", "setting": "MYC bHLHZip; 1:1 Langmuir model, four kinetic experiments, read-out: KD for MYC bHLHZip, SPR kinetic experiments, average", "value": "1600 ± 500", "unit": "nM"}, {"measurement": "Kd", "setting": "MYC bHLHZip; 50% of Rmax, four equilibrium experiments, read-out: KD for MYC bHLHZip, SPR equilibrium binding plot", "value": "1500 to 2000", "unit": "nM"}, {"measurement": "Kd", "setting": "MYC bHLHZip; Langmuir 1:1, constant Rmax 43 RU, read-out: KD for MYC bHLHZip, SPR, one representative kinetic experiment", "value": 2500, "unit": "nM"}, {"measurement": "kon", "setting": "MYC bHLHZip; SPR, representative experiment, read-out: association rate ka", "value": 9290, "unit": "M⁻¹ s⁻¹"}, {"measurement": "koff", "setting": "MYC bHLHZip; SPR, representative experiment, read-out: dissociation rate kd", "value": 0.0229, "unit": "s⁻¹"}, {"measurement": "binding to BSA (MST)", "setting": "[2]", "value": "did not bind"}, {"measurement": "concentration of binding to BCL-XL", "setting": "BCL-XL", "value": 14, "unit": "nM"}, {"measurement": "lung tumor growth in mouse xenograft model", "setting": "lung tumor", "value": "inhibit lung tumor growth"}, {"measurement": "binding to BSA (SPR)", "setting": "BSA", "value": "negligible"}, {"measurement": "number of viable cells and percentage of dead cells, normal fibroblasts", "setting": "[3]", "value": "only marginal effects; also recorded: not cytotoxic"}, {"measurement": "growth of MYC reconstituted (HOmyc3) cells", "setting": "[4]", "value": "strongly inhibited growth"}]}]}
